# Patent publication US8592603B2, “Synthesis of 2-(4-aminophenyl) benzothiazole derivatives and use thereof” (Kaohsiung Medical University, priority 2011, dated 2013)
# B1: catalase: an effective H2O2 scavenger (Sigma) (protein, UniProt P00432 2-527, looked up)
# Catalase: ADNRDPASDQMKHWKEQRAAQKPDVLTTGGGNPVGDKLNSLTVGPRGPLLVQDVVFTDEMAHFDRERIPERVVHAKGAGAFGYFEVTHDITRYSKAKVFEHIGKRTPIAVRFSTVAGESGSADTVRDPRGFAVKFYTEDGNWDLVGNNTPIFFIRDALLFPSFIHSQKRNPQTHLKDPDMVWDFWSLRPESLHQVSFLFSDRGIPDGHRHMNGYGSHTFKLVNANGEAVYCKFHYKTDQGIKNLSVEDAARLAHEDPDYGLRDLFNAIATGNYPSWTLYIQVMTFSEAEIFPFNPFDLTKVWPHGDYPLIPVGKLVLNRNPVNYFAEVEQLAFDPSNMPPGIEPSPDKMLQGRLFAYPDTHRHRLGPNYLQIPVNCPYRARVANYQRDGPMCMMDNQGGAPNYYPNSFSAPEHQPSALEHRTHFSGDVQRFNSANDDNVTQVRTFYLKVLNEEQRKRLCENIAGHLKDAQLFIQKKAVKNFSDVHPEYGSRIQALLDKYNEEKPKNAVHTYVQHGSHLSAREKANL
# Columns and labels:
# [1] = tested on: ERK; experiment: Western blot analysis of MAPK phosphorylation: ERK; assay type: cell-based, human; conditions: BCC cells, pretreatment 30 min before 4 μM 6f-UVA; oligomycin 25 μM, ATP 1×10^−4M (FIG. 6B)
# Description: (A) After exposure to different concentration of 6f-UVA, cell lysates were collected and immunoblotted with specific antibodies as indicated. For the internal control, the same amounts of protein extract were also probed with antibody against actin. (B) As a control, the expression level of p-ERK was determined in the presence of oligomycin (25 μM) and ATP (1×10^−4M)
# Total cell extracts from cultured BCC cells were obtained by lysing the cells in ice-cold RIPA buffer (1×PBS, 1% NP-40, 0.5% sodium deoxycholate, 0.1% SDS) containing 100 μg/mL PMSF, 2 μg/mL aprotinin, 2 μg/mL leupeptin and 100 μg/mL NaF. After centrifugation at 14,000 g for 30 min, protein in the supernatants was quantified by Bradford method (Bio-Rad). Forty micrograms of protein per lane was applied in 10% SDS-poly-acrylamide gel. After electrophoresis, protein was transferred from the gel to polyvinylidene difluoride (PVDF) membrane (Millipore, Bedford, Mass.). The membranes were blocked at room temperature for 1 h in PBS+0.1% Tween 20 (PBS-T) containing 5% skim milk. After being briefly rinsed with PBS-T, the blots were probed with respective primary antibodies at room temperature for 2 h or at 4° C. overnight. Rabbit polyclonal antibodies against JNK (46 kDa), p38 (38 kDa), ERK (42, 44 kDa), and mouse monoclonal antibody against p-JNK, p-p38, p-ERK were purchased from Santa Cruz Biotechnology (Santa Cruz, Calif.). Mouse monoclonal antibody against actin was purchased from Chemicon Int. Inc. (Temecula, Calif.). For the blocking test, 25 μM oligomycin (Sigma, a mitochondria-specific F0F1 ATP synthase inhibitor) or 1×10^−4M ATP (Sigma) was added to the media 30 min before treated with 6f-UVA, respectively. The membrane was incubated with the corresponding horseradish peroxidase-labeled secondary antibody (Santa Cruz Biotechnology) at room temperature for 1 h. […] The relative amounts of specific proteins were quantified by densitometry scanning of X-ray films and analyzed by Eagle Eye Image System (Stratagene, La Jolla, Calif.)
# [2] = tested on: BCC cells; experiment: Sub-G1 region analysis (PI, flow cytometry); assay type: cell-based, human; conditions: 4 μM for 4 hours, 1 J/cm^2 UVA, 24 h after irradiation
# Description: BCC cells were treated with compounds at 4 μM and 1 J/cm^2 UVA. Twenty-four hours after irradiation, cells were harvested by trypsinization and centrifugation. Cell pellets were resuspended in 50% cold ethanol and fixed at −20° C. After fixation, cells were washed once with cold PBS and incubated in 0.5 mL of PBS containing 100 μg/mL RNase A for 20 min at 37° C. Cells were harvested by centrifugation at 400 g for 5 min, and 250 μL of PBS containing 50 μg/mL propidium iodide (PI) was added to the pellet. Thirty minutes later, the DNA contents of 10,000 events were measured by FACSscan flow cytometer (Elite ESP, Beckman Coulter, Brea, Calif.). Histograms were analyzed using Windows Multiple Document Interface software (WinMDI). Cells with DNA content less than that in untreated cells in G0/G1 were considered apoptotic. To investigate the effects of compounds 6 on cell cycle progression of BCC cells, the DNA content of cell nuclei was measured by flow cytometric analysis. […] BCC cells were treated with 4 μM agents for 4 hours followed by 1 J/cm^2 UVA irradiation. Twenty-four hours after irradiation, the PI reagent was used. Approximately 10000 cells from each group were analyzed with the FACScan flow cytometer. The apoptotic effects in 2.2% (control), 6.5% (6a), 13.4% (6b), 29.2% (6c), 24.4% (6d), 6.5% (6e), 35.4% (6f), 13.6% (6g), 13.8% (6h), 14.8% (6i) and 6.4% (6j) of sub-G1 DNA peak were obtained (% represented the percentage of cell counts).
# [3] = tested on: BCC cells; experiment: Determination of intracellular ROS level (DCFH-DA); assay type: cell-based, human; conditions: BCC cells treated with 4 μM 6f-UVA, catalase 800 U/mL pretreatment
# Description: (A) 6f-UVA induced ROS generation in BCC cells. Histogram of fluorescence vs cell count in BCC cells with various concentrations of 6f-UVA and stained with DCFH-DA. As a control, ROS was measured in the presence of catalase, a H2O2 scavenger. (B) The ΔΨmt of BCC cells after exposure to 6f-UVA. Cells were treated with 0, 2, and 4 μM Formula 6f for 4 h followed by 1 J/cm2 UVA irradiation, then stained with DiOC6 and analyzed immediately by flow cytometry as described under Materials and Methods. The number in M1 indicates the percentage of cells with reduced ΔΨmt. Approximately 10000 cells from each group were analyzed by flow cytometry. (C) Relative ATP levels were calculated as the percentage of the 0 μM level. Similar results were obtained in three independent experiments. *p<0.05, ** p<0.01 as compared with the control.
# To evaluate intracellular reactive oxygen species (ROS) levels, 2′,7′-dichlorofluorescein diacetate (DCFH-DA, Molecular Probes) fluorescent dye was used to clarify this issue. The nonpolar DCFH-DA is converted to the polar derivative DCFH by esterases when it is taken up by the cell. DCFH is nonfluorescent but is rapidly oxidized to the highly fluorescent DCF by intracellular H2O2 or nitric oxide. […] The fluorescence of the samples was measured with a flow cytometer. The 2′,7′-dichlorofluorescein (DCF) data were recorded using FL-1 photomultiplier.
Molecule,ERK activation after pretreatment [1],"sub-G1 DNA peak (apoptotic effects, percentage of cell counts) [2] [%]",melting point [°C],effect of catalase on increased ROS production [3]
Nc1ncnc2c1ncn2[C@@H]1O[C@H](COP(=O)(O)OP(=O)(O)OP(=O)(O)O)[C@@H](O)[C@H]1O [ATP],not ATP increased the ERK activation,,,
"Nc1ccc(-c2nc3ccccc3s2)cc1 [Formula 6a, 2-(4-Aminophenyl)benzothiazole]",,6.5,,
"Cc1ccc2nc(-c3ccc(N)cc3)sc2c1 [Formula 6b, 2-(4-Aminophenyl)-6-methylbenzothiazole]",,13.4,,
"CCc1ccc2nc(-c3ccc(N)cc3)sc2c1 [Formula 6c, 2-(4-Aminophenyl)-6-ethylbenzothiazole]",,29.2,154 to 156,
"COc1cccc2nc(-c3ccc(N)cc3)sc12 [Formula 6d, 2-(4-Aminophenyl)-7-methoxybenzothiazole]",,24.4,142 to 144,
"COc1ccc2nc(-c3ccc(N)cc3)sc2c1 [Formula 6e, 2-(4-Aminophenyl)-6-methoxybenzothiazole]",,6.5,,
"Cc1cc(-c2nc3ccccc3s2)ccc1N [Formula 6g, 2-(4-Amino-3-methylphenyl)benzothiazole]",,13.6,,
"CCc1ccc2nc(-c3ccc(N)c(C)c3)sc2c1 [Formula 6h, 2-(4-Amino-3-methylphenyl)-6-ethylbenzothiazole]",,13.8,171 to 173,
"COc1ccc2nc(-c3ccc(N)c(C)c3)sc2c1 [Formula 6i, 2-(4-Amino-3-methylphenyl)-6-methoxybenzothiazole]",,14.8,151 to 153,
"Cc1cc(-c2nc3ccc(C(F)(F)F)cc3s2)ccc1N [Formula 6j, 2-(4-Amino-3-methylphenyl)-6-trifluoromethylbenzothiazole]",,6.4,152 to 154,
CC[C@H]1/C=C/C=C/C[C@@H](C)[C@H](O)[C@@](C)(O)C(=O)[C@@H](C)[C@H](O)[C@@H](C)C(=O)[C@@H](C)[C@H](O)[C@@H](C)/C=C/C(=O)O[C@@H]2[C@H](C)[C@H](CC1)O[C@]1(CC[C@H](C)[C@H](C[C@@H](C)O)O1)[C@H]2C [oligomycin],increased the ERK activation,,,
B1,,,,significantly abrogated
